From PubChem BioAssay AID330 (DTP/NCI, 2004)
Several values for one entry are separate records, joined by “and”; a condition that tells them apart may be missing. Equal values may be shown once. Inconclusive results and toxic doses are left out. Rule for the calls: active = survival T/C of 150% or more; inactive = T/C below 125% in these data.

System: P388 leukemia ip, CD2F1 mice, survival T/C
Test: NCI In Vivo Anticancer Drug Screen. Data for tumor model P388 Leukemia (intraperitoneal) in CD2F1 (CDF1) mice
Details: endpoint: median survival time, higher = longer survival
In short: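 Mice carrying the transplanted tumor received test compound or vehicle. Survival was recorded in each group, and the value is the treated-group measurement divided by that of the vehicle-treated control group.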

[1] = dose: 60.0 mg/kg/injection, schedule: Q01DX005 (ip), vehicle: Klucel (hydroxypropylcellulose) (HPC)
[2] = dose: 120.0 mg/kg/injection, schedule: Q01DX005 (ip), vehicle: Klucel (hydroxypropylcellulose) (HPC)
[3] = dose: 240.0 mg/kg/injection, schedule: Q01DX005 (ip), vehicle: Klucel (hydroxypropylcellulose) (HPC)
[4] = dose: 50.0 mg/kg/injection, schedule: Q01DX005 (ip), vehicle: saline with Tween-80
[5] = dose: 100.0 mg/kg/injection, schedule: Q01DX005 (ip), vehicle: saline with Tween-80
[6] = dose: 50.0 mg/kg/injection, schedule: Q01DX009 (ip), vehicle: saline with Tween-80
[7] = dose: 200.0 mg/kg/injection, schedule: Q01DX005 (ip), vehicle: saline with Tween-80
[8] = dose: 100.0 mg/kg/injection, schedule: Q04DX003 (ip), vehicle: saline with Tween-80
[9] = dose: 200.0 mg/kg/injection, schedule: Q04DX003 (ip), vehicle: saline with Tween-80
[10] = dose: 400.0 mg/kg/injection, schedule: Q04DX003 (ip), vehicle: saline with Tween-80
[11] = dose: 100.0 mg/kg/injection, schedule: Q01DX009 (ip), vehicle: saline with Tween-80
[12] = dose: 200.0 mg/kg/injection, schedule: Q01DX009 (ip), vehicle: saline with Tween-80
[13] = dose: 50.0 mg/kg/injection, schedule: Q01DX005 (ip), vehicle: Klucel (hydroxypropylcellulose) (HPC)
[14] = dose: 100.0 mg/kg/injection, schedule: Q01DX005 (ip), vehicle: Klucel (hydroxypropylcellulose) (HPC)
[15] = dose: 200.0 mg/kg/injection, schedule: Q01DX005 (ip), vehicle: Klucel (hydroxypropylcellulose) (HPC)

Measured: T/C

Cc1cc(C(F)(F)F)nc2nc3ccccc3n12
inactive: [1] 101 % of control | [2] 102 % of control | [3] 89 % of control

O=c1sc2ccccc2nc1NNc1ccccc1
inactive: [4] 90 % of control | [5] 90 % of control

NC(=O)c1ccc(C(N)=O)cc1
inactive: dose: 12.5 mg/kg/injection, schedule: Q01DX009 (ip), vehicle: saline with Tween-80 100 % of control | dose: 25.0 mg/kg/injection, schedule: Q01DX009 (ip), vehicle: saline with Tween-80 100 % of control | [6] 95 % of control

CCCCNc1cc(-c2c(N)nc(N)nc2CC)ccc1[N+](=O)[O-]
inactive: [4] 101 % of control | [5] 101 % of control | [7] 94 % of control

CC(C)(C(=O)O)c1csc(-c2ccc(Cl)cc2)n1
inactive: [4] 98 % of control | [5] 102 % of control | [7] 93 % of control

COC1/C=C/OC2(C)Oc3c(C)c(O)c4c(c3C2=O)C(=O)C2=C(NC(=NC2)/C(C)=C\C=C\C(C)C(O)C(C)C(O)C(C)C(OC(C)=O)C1C)C4=O (stereo not drawn)
inactive: dose: 6.25 mg/kg/injection, schedule: Q04DX003 (ip), vehicle: other 94 % of control | dose: 12.5 mg/kg/injection, schedule: Q04DX003 (ip), vehicle: other 101 % of control | dose: 25.0 mg/kg/injection, schedule: Q04DX003 (ip), vehicle: other 113 % of control | dose: 50.0 mg/kg/injection, schedule: Q04DX003 (ip), vehicle: other 109 % of control | dose: 100.0 mg/kg/injection, schedule: Q04DX003 (ip), vehicle: other 122 % of control

CCN(CCN1C(=O)C2CCCCC2C1=O)c1ccc(N=O)c(C)c1 (stereo not drawn)
inactive: [8] 106 % of control | [9] 109 % of control | [10] 112 % of control

O=C1c2cccnc2C(=O)c2c(O)ccc(O)c21
inactive: [6] 95 % of control | [11] 95 % of control | [12] 99 % of control | dose: 400.0 mg/kg/injection, schedule: Q01DX009 (ip), vehicle: saline with Tween-80 100 % of control

Oc1ccc(N=Cc2ccc(OCc3ccccc3)cc2)cc1
inactive: [6] 97 % of control | [11] 93 % of control | [12] 93 % of control

Cc1ccc(S(=O)(=O)N(C)c2cc(Cl)c(C(=O)O)c(Cl)c2)cc1
inactive: dose: 88.0 mg/kg/injection, schedule: Q04DX003 (ip), vehicle: saline with Tween-80 99 % of control | dose: 133.0 mg/kg/injection, schedule: Q04DX003 (ip), vehicle: saline with Tween-80 100 % of control | [9] 99 % of control | dose: 300.0 mg/kg/injection, schedule: Q04DX003 (ip), vehicle: saline with Tween-80 100 % of control

Clc1ccc2c(c1)C(c1ccccc1Cl)=NCC(SCCN1CCOCC1)=N2
inactive: dose: 60.0 mg/kg/injection, schedule: Q01DX005 (ip), vehicle: saline 107 % of control | dose: 120.0 mg/kg/injection, schedule: Q01DX005 (ip), vehicle: saline 101 % of control | dose: 240.0 mg/kg/injection, schedule: Q01DX005 (ip), vehicle: saline 112 % of control

O=C1OC(=O)C(c2ccccc2)(c2ccccc2)C1c1ccccc1 (stereo not drawn)
inactive: [8] 112 % of control | [9] 119 % of control | [10] 112 % of control

C=C1CC2(CCCC3(C2)OCCO3)OC1=O (stereo not drawn)
inactive: [13] 95 % of control | [14] 95 % of control | [15] 106 % of control

COCCCN=C(N)c1ccc(NC(=O)c2ccc(C(=O)Nc3ccc(C(N)=NCCCOC)cc3)cc2)cc1
active: dose: 1.65 mg/kg/injection, schedule: Q01DX009 (ip), vehicle: saline with Tween-80 154 % of control | dose: 2.5 mg/kg/injection, schedule: Q01DX009 (ip), vehicle: saline with Tween-80 154 % of control | dose: 3.75 mg/kg/injection, schedule: Q01DX009 (ip), vehicle: saline with Tween-80 195 % of control | dose: 5.63 mg/kg/injection, schedule: Q01DX009 (ip), vehicle: saline with Tween-80 227 % of control | dose: 6.6 mg/kg/injection, schedule: Q04DX003 (ip), vehicle: saline with Tween-80 155 % of control | dose: 10.0 mg/kg/injection, schedule: Q04DX003 (ip), vehicle: saline with Tween-80 150 % of control | dose: 12.5 mg/kg/injection, schedule: Q04DX003 (ip), vehicle: saline with Tween-80 177 % of control | dose: 15.0 mg/kg/injection, schedule: Q04DX003 (ip), vehicle: saline with Tween-80 200 % of control | dose: 25.0 mg/kg/injection, schedule: Q04DX003 (ip), vehicle: saline with Tween-80 200 % of control
inactive: dose: 50.0 mg/kg/injection, schedule: Q04DX003 (ip), vehicle: saline with Tween-80 90 % of control

COC(=O)C1(F)C(=O)NC(=O)NC1OC (stereo not drawn)
inactive: dose: 30.0 mg/kg/injection, schedule: Q04DX002 (ip), vehicle: Klucel (hydroxypropylcellulose) (HPC) 117 % of control | dose: 60.0 mg/kg/injection, schedule: Q04DX002 (ip), vehicle: Klucel (hydroxypropylcellulose) (HPC) 118 % of control and 123 % of control
active: dose: 240.0 mg/kg/injection, schedule: Q04DX002 (ip), vehicle: Klucel (hydroxypropylcellulose) (HPC) 157 % of control | dose: 480.0 mg/kg/injection, schedule: Q04DX002 (ip), vehicle: Klucel (hydroxypropylcellulose) (HPC) 164 % of control

NC(=O)CCC(NS(=O)(=O)c1ccc(NC(=O)c2ccc(Cl)cc2)cc1)C(=O)O (stereo not drawn)
inactive: [13] 104 % of control | [14] 102 % of control | [15] 102 % of control

Cc1nc2c(N)nn(C)c2nc1C
inactive: [6] 105 % of control | [11] 110 % of control | [12] 110 % of control

C=C1C(=O)OC2/C=C(/COC(=O)CCCCC)CCC(OCC)C3=CC(OC3=O)C12 (stereo not drawn)
inactive: dose: 4.0 mg/kg/injection, schedule: Q01DX009 (ip), vehicle: Klucel (hydroxypropylcellulose) (HPC) 105 % of control | dose: 8.0 mg/kg/injection, schedule: Q01DX009 (ip), vehicle: Klucel (hydroxypropylcellulose) (HPC) 105 % of control | dose: 16.0 mg/kg/injection, schedule: Q01DX009 (ip), vehicle: Klucel (hydroxypropylcellulose) (HPC) 108 % of control | dose: 32.0 mg/kg/injection, schedule: Q01DX009 (ip), vehicle: Klucel (hydroxypropylcellulose) (HPC) 123 % of control

Cc1ccc(N=Nc2c(O)n(-c3ccc(C)cc3)c(=S)n(-c3ccc(Br)cc3)c2=O)cc1
inactive: dose: 100.0 mg/kg/injection, schedule: Q04DX002 (ip), vehicle: saline with Tween-80 99 % of control | dose: 200.0 mg/kg/injection, schedule: Q04DX002 (ip), vehicle: saline with Tween-80 102 % of control | dose: 400.0 mg/kg/injection, schedule: Q04DX002 (ip), vehicle: saline with Tween-80 105 % of control

CC1(C)CC(Nc2ccccc2)=CC(=S)N1
inactive: [13] 100 % of control | [14] 103 % of control | [15] 100 % of control

COC(=O)c1cc(-c2ccc(F)cc2)[nH]c(=O)c1C#N
inactive: dose: 60.0 mg/kg/injection, schedule: Q01DX005 (ip), vehicle: saline with Tween-80 97 % of control | dose: 120.0 mg/kg/injection, schedule: Q01DX005 (ip), vehicle: saline with Tween-80 106 % of control | dose: 240.0 mg/kg/injection, schedule: Q01DX005 (ip), vehicle: saline with Tween-80 104 % of control

O=C(CO)C1CC2CCC1C2 (stereo not drawn)
inactive: [1] 101 % of control | [2] 101 % of control | [3] 99 % of control
